Results on 45 compounds are retold here after patent US20230159486A1, “SUBSTITUTED THIOPHENECARBOXAMIDES AND ANALOGUES AS ANTIBACTERIALS AGENTS” (Bayer Aktiengesellschaft, priority 2018, published 2023).

The nature of data set [1]: Log P by HPLC on reversed phase columns (EEC directive 79/831 Annex V.A8). In kind it is physicochemical. As to the method: In the above tables, measurement of Log P values was performed according to EEC directive 79/831 Annex V.A8 by HPLC (High Performance Liquid Chromatography) on reversed phase columns with the following methods: • ^[a]
If more than one Log P value is available within the same method, all the values are given and separated by “+”.
Calibration was done with straight-chain alkan2-ones (with 3 to 16 carbon atoms) with known Log P values (measurement of Log P values using retention times with linear interpolation between successive alkanones). Lambda-max-values were determined using UV-spectra from 200 nm to 400 nm and the peak values of the chromatographic signals.

The test system of data set [2] is Xanthomonas campestris pv. campestris. Kind of data set: In vivo preventive test on Xanthomonas campestris pv. campestris (black rot on cabbage). The settings on record: comparative Example C, same conditions as described in Example B; concentration not given. The method, then: The tested compounds were prepared by homogenization in a mixture of acetone/Dimethyl sulfoxide/Tween®, and then diluted with water to obtain the desired concentration.
The young plants of cabbage were treated by spraying the compound prepared as described above. Control plants were treated only with an aqueous solution of acetone/Dimethyl sulfoxide/Tween®.
After 72 hours, the plants were contaminated by spraying the leaves with an aqueous bacteria suspension of Xanthomonas campestris pv. campestris. The contaminated cabbage plants were incubated for 8 or 10 days at 27° C. at 95% relative humidity.
The test was evaluated 8 or 10 days after the inoculation. 0% means an efficacy which corresponds to that of the control plants while an efficacy of 100% means that no disease was observed.
Compounds CMP1 and CMP2 were tested in an in vivo preventive test on Xanthomonas campestris pv. campestris (black rot on cabbage) in the same conditions as described in Example B.
Compounds CMP1 and CMP2 were prepared in accordance with the teaching of U.S. Pat. No. 5,534,541.

Data set [3] has the same test system. The experiment in a line: Xanthomonas campestris pv. campestris in vitro cell test (bacteria growth in liquid culture). It is filed as cell-based. Conditions: 20 ppm of tested compound, 24 h of incubation. As to the method:
Culture medium: LB broth medium (Luria Broth Miller) Sigma
Inoculum: bacteria suspension
Compounds to be tested were solubilized in DMSO and the solution used to prepare the required range of concentrations. The final concentration of DMSO used in the assay was ≤1%.
Inoculum was prepared from a pre-culture of bacteria grown in liquid medium and diluted to the desired optical density (OD).
Compounds were evaluated for their ability to inhibit bacteria growth in liquid culture assay. The compounds were added in the desired concentrations to culture medium containing the bacteria suspension. After 24 h of incubation, the efficacy of compounds was determined by spectrometric measurement of bacteria growth. Inhibition was determined by comparing the absorbance values in wells containing the compounds with the absorbance in control wells without compounds.

Where [4] appears, read: reversed phase HPLC columns, method [a]: LC-UV, acidic range, 0.1% formic acid in water and acetonitrile.
Setting [5] is: reversed phase HPLC columns, value of the preparation example, method not marked.

Each structure is given as a SMILES string. Where a name gives a salt, the structure may show the parent alone. Marks after values point to notes of the source that are not given here.

For orientation: chromatographic logP means lipophilicity estimated from chromatographic retention. Higher therefore signals a more lipophilic compound.

With `O=C(O)CNC(=O)c1sc(Cl)c(Cl)c1Cl` [II.05, N-[(3,4,5-trichloro-2-thienyl)carbonyl]glycine], the figures for the chromatographic logP in data set [1] (setting [4]) and in data set [1] (setting [5]) were 2.16 and 2.14, respectively.
Take `O=C(NC(C(=O)O)C1CC1)c1cc(Cl)c(Cl)s1` (racemic) [XVIc.05]: the LogP in data set [1] is 2.33^[a].
In the case of `CC[C@H](C)[C@H](NC(=O)c1sc(Cl)c(Cl)c1Cl)C(=O)OC` [II.14], the “Efficacy (%)” value in data set [2] was above 90%. Further, the LogP in data set [1] was 4.82^[a]. In data set [3], the “direct activity (inhibition of bacteria growth)” value is recorded as “no direct activity”.
On to `CC[C@H](C)[C@H](NC(=O)c1sc(Cl)c(Cl)c1Cl)C(=O)O` [II.30], for which the LogP in data set [1] was 3.69^[a].
Turning to `C=CC1CC1(NC(=O)c1sc(Cl)c(Cl)c1Cl)C(=O)OC` (mixture of isomers) [II.36], the “Efficacy (%)” value in data set [2] is above 90%. In data set [1], the LogP is 3.68^[a]. Also, the “direct activity (inhibition of bacteria growth)” value in data set [3] is on record as “no direct activity”.
With `O=C(CNC(=O)c1sc(Cl)c(Cl)c1Cl)OC1CCC1` [II.16], the LogP in data set [1] was 3.87^[a]. In data set [3], the “direct activity (inhibition of bacteria growth)” value is “no direct activity”.
The like results for `O=C(CNC(=O)c1sc(Cl)c(Cl)c1Cl)OC1CC1` [II.12] were, in that order, 3.33^[a] and “no direct activity”.
Take `CCOC(=O)C(Cc1ccccc1)NC(=O)c1sc(Cl)c(Cl)c1Cl` (racemic) [II.26]: the LogP in data set [1] was 5.04^[a].
For the compound `CCOC(=O)C(Cc1ccc(O)cc1)NC(=O)c1sc(Cl)c(Cl)c1Cl` (racemic) [II.15], in data set [1], the LogP is 3.63^[a]. In data set [3], the “direct activity (inhibition of bacteria growth)” value is listed as “no direct activity”.
The corresponding values for `N#CCOC(=O)CNC(=O)c1sc(Cl)c(Cl)c1Cl` [II.21] are 2.84^[a] and “no direct activity”.
`CC(C)CC(NC(=O)c1sc(Cl)c(Cl)c1Cl)C(=O)O` (racemic) [II.31]: the LogP in data set [1] was 3.62^[a].
In the case of `CC/C=C\CCOC(=O)CNC(=O)c1sc(Cl)c(Cl)c1Cl` [II.17], the LogP in data set [1] is 4.69^[a]. Also, the “direct activity (inhibition of bacteria growth)” value in data set [3] was “no direct activity”.
`CCOC(=O)[C@H](Cc1ccccc1)NC(=O)c1sc(Cl)c(Cl)c1Cl` [II.25]: in data set [1], the LogP was 5.00^[a].
As for `O=C(CNC(=O)c1sc(Cl)c(Cl)c1Cl)OCC(F)(F)F` [II.07], the LogP in data set [1] is 3.60^[a]. Besides, the “direct activity (inhibition of bacteria growth)” value in data set [3] is on record as “no direct activity”.
For `CCOC(=O)[C@H](CC(C)C)NC(=O)c1sc(Cl)c(Cl)c1Cl` [II.28], the LogP in data set [1] was 5.16^[a].
As for `C[Si](C)(C)COC(=O)CNC(=O)c1sc(Cl)c(Cl)c1Cl` [II.23], in data set [1], the LogP is 4.81^[a]. Further, the “direct activity (inhibition of bacteria growth)” value in data set [3] was “no direct activity”.
The like results for `C#CCOC(=O)CNC(=O)c1sc(Cl)c(Cl)c1Cl` [II.20] were, in that order, 3.13^[a] and “no direct activity”.
Regarding `COC(=O)C(NC(=O)c1sc(Cl)c(Cl)c1Cl)C(C)C` (stereo not shown) [CMP2, reference compound], the “Efficacy (%)” value in data set [2] amounted to 0%.
Consider `CC(C)OC(=O)CNC(=O)c1sc(Cl)c(Cl)c1Cl` [II.09], for which the LogP in data set [1] was 3.67^[a]. Also, the “direct activity (inhibition of bacteria growth)” value in data set [3] is recorded as “no direct activity”.
For the compound `COC(=O)CNC(=O)c1sc(Cl)c(Cl)c1Cl` [II.01, methyl N-[(3,4,5-trichloro-2-thienyl)carbonyl]glycinate], the “Efficacy (%)” value in data set [2] was above 90%. The chromatographic logP in data set [1] (setting [4]) worked out at 2.83; in data set [1] (setting [5]) it was 2.8. In addition, the “direct activity (inhibition of bacteria growth)” value in data set [3] was “no direct activity”.
In the case of `O=C(CNC(=O)c1sc(Cl)c(Cl)c1Cl)Oc1ccccc1` [II.08], the LogP in data set [1] was 3.87^[a]. The “direct activity (inhibition of bacteria growth)” value in data set [3] is reported as “no direct activity”.
Consider `COC(=O)C1(NC(=O)c2cc(Cl)c(Cl)s2)CC1` [XVIc.01], for which the LogP in data set [1] is 2.49^[a].
As for `CCCCOC(=O)CNC(=O)c1sc(Cl)c(Cl)c1Cl` [II.11], in data set [1], the LogP was 4.18^[a]. In addition, the “direct activity (inhibition of bacteria growth)” value in data set [3] is listed as “no direct activity”.
`COC(=O)C(NC(=O)c1sc(Cl)c(Cl)c1Cl)C1CC1` (racemic) [II.06]: the “Efficacy (%)” value in data set [2] is above 90%. Also, in data set [1], the LogP was 3.81^[a]. Besides, the “direct activity (inhibition of bacteria growth)” value in data set [3] was “no direct activity”.
As to `CC(C)(C)OC(=O)CNC(=O)c1sc(Cl)c(Cl)c1Cl` [II.24], the LogP in data set [1] is 4.27^[b]. In addition, the “direct activity (inhibition of bacteria growth)” value in data set [3] is “no direct activity”.
As to `CCOC(=O)[C@@H](CC(C)C)NC(=O)c1sc(Cl)c(Cl)c1Cl` [II.27], the LogP in data set [1] was 5.20^[a].
With `CCCOC(=O)CNC(=O)c1sc(Cl)c(Cl)c1Cl` [II.10], the LogP in data set [1] is 3.70^[a]. The “direct activity (inhibition of bacteria growth)” value in data set [3] is given as “no direct activity”.
For the compound `CCOC(=O)C1(NC(=O)c2sc(Cl)c(Cl)c2N)CC1` [XVIIc.01, ethyl 1-{[(3-amino-4,5-dichloro-2-thienyl)carbonyl]amino}cyclopropanecarboxylate], the chromatographic logP in data set [1] (setting [4]) and in data set [1] (setting [5]) was 2.77 each time.
For the compound `O=C(NC(C(=O)O)C1CC1)c1sc(Cl)c(Cl)c1Cl` (racemic) [II.33], the LogP in data set [1] was 2.83^[a].
Consider `O=C(NC1(C(=O)O)CC1)c1sc(Cl)c(Cl)c1Cl` [II.03], for which, in data set [3], the “direct activity (inhibition of bacteria growth)” value is “no direct activity”.
Turning to `CCOC(=O)C1(NC(=O)c2scc(Cl)c2Cl)CC1` [XVIa.03], the LogP in data set [1] is 2.59^[a].
With `CC(C)COC(=O)CNC(=O)c1sc(Cl)c(Cl)c1Cl` [II.19], the LogP in data set [1] is 4.13^[a]. For the same compound, in data set [3], the “direct activity (inhibition of bacteria growth)” value is recorded as “no direct activity”.
In the case of `O=C(CNC(=O)c1sc(Cl)c(Cl)c1Cl)OCc1ccccc1` [II.13], in data set [3], the “direct activity (inhibition of bacteria growth)” value was “no direct activity”.
In the case of `O=C(CNC(=O)c1sc(Cl)c(Cl)c1Cl)OCC1CC1` [II.18], the LogP in data set [1] was 3.81^[a]. The “direct activity (inhibition of bacteria growth)” value in data set [3] was “no direct activity”.
For the compound `O=C(NC(Cc1ccccc1)C(=O)O)c1sc(Cl)c(Cl)c1Cl` (racemic) [II.32], the LogP in data set [1] is 3.56^[a].
On the same count and under the same terms, the figure for `CCOC(=O)C(Cc1ccccc1)NC(=O)c1scc(Cl)c1Cl` (racemic) [XVIa.02] is 3.99^[a]; for `CCOC(=O)CNC(=O)c1scc(Cl)c1Cl` [XVIa.01] it is 2.40^[a].
In the case of `COC(=O)C(NC(=O)c1cc(Cl)c(Cl)s1)C1CC1` (racemic) [XVIc.03], the LogP in data set [1] is 2.98^[a].
In the case of `C=CCOC(=O)CNC(=O)c1sc(Cl)c(Cl)c1Cl` [II.22], the LogP in data set [1] was 3.64^[a]. Also, in data set [3], the “direct activity (inhibition of bacteria growth)” value is “no direct activity”.
`COC(=O)CNC(=O)c1sc(Br)c(Br)c1Br` [CMP1, reference compound]: the “Efficacy (%)” value in data set [2] was found to be 27%.
As to `CCOC(=O)CN(C)C(=O)c1sc(Cl)c(Cl)c1Cl` [II.35], the LogP in data set [1] was 3.21^[a]. Also, the “direct activity (inhibition of bacteria growth)” value in data set [3] is reported as “no direct activity”.
Regarding `CCOC(=O)[C@@H](Cc1ccccc1)NC(=O)c1sc(Cl)c(Cl)c1Cl` [II.37], in data set [1], the LogP was 5.00^[a].
`Nc1c(C(=O)O)sc(Cl)c1Cl` [XIXc.01, 3-amino-4,5-dichlorothiophene-2-carboxylic acid hydrochloride (1:1)] returned a chromatographic logP in data set [1] (method [a]: LC-UV, acidic range, 0.1% formic acid in water and acetonitrile) of 2.05.
Regarding `CCOC(=O)C(CC(C)C)NC(=O)c1sc(Cl)c(Cl)c1Cl` (racemic) [II.04], the LogP in data set [1] is 5.22^[a]. In addition, the “direct activity (inhibition of bacteria growth)” value in data set [3] is “no direct activity”.
Regarding `CCOC(=O)C1(NC(=O)c2sc(Cl)c(Cl)c2Cl)CC1` [II.02, ethyl 1-{[(3,4,5-trichloro-2-thienyl)carbonyl]amino}cyclopropanecarboxylate], the chromatographic logP in data set [1] (setting [4]) was determined as 3.41; in data set [1] (setting [5]), 3.4. Further, the “direct activity (inhibition of bacteria growth)” value in data set [3] is given as “no direct activity”.
